Assay results reported in US10017681B2, “Corrosion inhibitors” (RHODIA OPERATIONS, priority 2014, dated 2018).
Where two headings read alike, the source gives them in different places. Marks after values point to notes of the source that are not given here.

Key:
[1] = Foam tendency (dynamic foam test, ASTM G170-06); type: physicochemical; details: 1000 ppm active; 50/50 v/v Isopar M and 5% NaCl, 25° C.
Method: Foam tendencies were investigated using the methods described in ASTM G170-06 (2012) ‘Standard Guide for Evaluating and Qualifying Oilfield and Refinery Corrosion Inhibitors in the Laboratory’.
A graduated dynamic foam test apparatus (1000 ml measuring cylinder) fitted with a No. 1 porosity gas sparge tube was used for the test. 1000 ppm of corrosion inhibitor was added to a 50/50 v/v brine (5% NaCl solution) and Isopar M mixture (200 ml) at ambient temperature (25° C.). The mixture was left for 10 minutes before immersing the sparge tube in the brine layer. Nitrogen gas (flow rate: 0.5 litre/min) was injected into the solution and the volume of foam produced was measured over a set period of time (10 minutes).
If the foam reached the 1000 ml mark (800 ml foam volume) before the 10 minutes had elapsed then the time taken for the foam to reach the 1000 ml mark (800 ml of foam) was recorded. The volume of foam produced after the allotted time was also recorded.
The foam persistence was determined by measuring the foam volume after 10 minutes.

[2] = RCE film persistence under high shear (4000 rpm), Example 2; details: high shear rates (4000 rpm)
Method: (§1) Corrosion inhibition properties were screened using the LPR (Linear Polarisation Resistance) bubble test method and the film persistence of the surfactants was evaluated using a Rotating Cylinder Electrode (RCE). The conditions were the same in both tests.
(§2) A 90/10 brine (5% w/w NaCl) and Isopar M (C9-15 iso-paraffins) mixture at 60° C. was saturated with CO2. The electrodes were immersed in the brine and left for several hours to establish the base line corrosion rate before injecting the surfactant.
A shear rate of 4000 rpm was used to simulate very high shear conditions in order to determine the film persistence properties of the surfactants.
The persistence of the surfactant corrosion inhibitor film was also assessed under high shear rates (4000 rpm).

[3] = Emulsion tendency (ASTM G-170); type: physicochemical; details: for Brine (ml) @ T = 30 mins / Isopar M (ml) @ T = 30 mins / Pad (ml) @ T = 30 mins / Emulsion Layer (%): 1000 ppm active, 50/50 v/v Isopar M and 5% NaCl, 25° C.; for Emulsion Layer (%): after 30 minutes
Method: The emulsification behaviours of the alkyl phosphonic acids were investigated using the standard test procedure, ASTM G-170. It will be appreciated that, in general, corrosion inhibition formulations which have a low tendency to form emulsions with hydrocarbons are preferred.
1000 ppm active corrosion inhibitor formulation was added to a 250 ml measuring cylinder containing 100 ml 50/50 v/v 5% NaCl and Isopar M respectively. The cylinder was sealed and shaken 100 times.
The mixture was allowed to rest and the emulsion and brine layer volumes were recorded. The brine, Isopar M and emulsion layers were measured at 5, 10 and 30 minutes respectively.

[4] = LPR (Linear Polarisation Resistance) bubble test, Example 2; details: 90/10 5% NaCl/Isopar M, 60° C., CO2
Method: as §1, §2
The corrosion rate at 15 hours was used to benchmark the efficacy of the formulations containing octyl phosphonic acid against a commercial corrosion inhibitor. Synergistic properties of the surfactant mixtures were identified by comparing them against the corrosion rates of the individual surfactants.
The surfactant ratios for the LPR/RCE measurements were 80/20 and 50/50 Cl/octyl phosphonic acid and compared against the individual surfactants.

[5] = Dynamic surface tension (maximum bubble pressure method); type: physicochemical; details: 1000 ppm (as active) in 5% NaCl, 25° C., surface age 30 seconds
Method: Dynamic Surface Tension measurements were therefore carried out using a Messtechnik SITA T60 tensiometer for mixtures of the alkyl phosphonic acids with selected surfactants (anionic and amphoteric) in 5% NaCl.
These tests were carried out using the maximum bubble pressure method (see ‘Exploiting Surfactant Synergies in the Development of Foamers for Gas Well Deliqufication’, K Hatchman, C Jones, B Downward, G Collins, A Fellows, Proceedings of Chemistry In The Oil Industry XII, Royal Society of Chemistry, 2011).
The surface tensions were measured for 1000 ppm (as active) at a surface age of 30 seconds (equilibrium conditions) and ambient temperature (25° C.).

[6] = Rotating Cylinder Electrode (RCE) film persistency test (4000 rpm); details: 20 ppm active, 60° C.
Method: An RCE film persistency test was carried out as follows: • A clean jacketed RCE corrosion cell was fitted with an, auxiliary electrode, reference electrode, and gas sparge tube. • The cell was charged with 899.1 g of 5% NaCl brine. • The temperature of the circulator connected to the jacketed cell was set to 60° C. • A constant CO2 sparge of approx. 200 cm^3/min was passed through the brine in the RCE cell which was then left for 1 hour to reach equilibrium. • A C1018 mild steel coupon was washed in xylene and acetone to remove any vapour phase corrosion inhibitor and allowed to dry. • After the RCE cell reached equilibrium the mild steel coupon was connected to the RCE shaft and inserted into the RCE cell. • Isopar M 99.9 g was then carefully transferred into the cell so that it floated on top of the brine. (This is done at this stage to prevent the working electrode from becoming oil wet as a periscope is unavailable) • The rotator was turned on and set to 4000 rpm. (NB. This is the fastest speed achievable using current available equipment.) • Baseline corrosion data was collected for approximately 2.5 hours. • During this time a 2% (w/w active) stock solution of Rhodafac ASI 80 was made up in methanol. • After the baseline corrosion data was collected the stock solution was injected into the RCE cell at a concentration of 20 ppm (w/w active). • The corrosion rate in the cell was recorded for at least a further 12.5 hours.

[7] = Solubility of samples when making stock solutions; type: physicochemical; details: 2% (w/w active) stock solutions in methanol
[8] = 20 ppm active; 1500 rpm; 60° C., CO2
Method: An RCE film persistency test was carried out as follows: • A clean jacketed RCE corrosion cell was fitted with an auxiliary electrode, reference electrode, and gas sparge tube. • The cell was charged with 899.1 g of 5% NaCl brine. • The temperature of the circulator connected to the jacketed cell was set to 60° C. • A constant CO2 sparge of approx. 200 cm^3/min was passed through the brine in the RCE cell which was then left for 1 hour to reach equilibrium. • A C1018 mild steel coupon was washed in xylene and acetone to remove any vapour phase corrosion inhibitor and allowed to dry. • After the RCE cell reached equilibrium the mild steel coupon was connected to the RCE shaft and inserted into the RCE cell. • Isopar M 99.9 g was then carefully transferred into the cell so that it floated on top of the brine. (This is done at this stage to prevent the working electrode from becoming oil wet as a periscope is unavailable) • The rotator was turned on and set to 1500 rpm. • Baseline corrosion data was collected for approximately 2.5 hours. • During this time 2% (w/w active) stock solutions of samples 2 or 3 were made up in methanol.

[9] = Bubble test (LPR), Example 1; details: on its own
Method: A bubble test was carried out as follows: • Clean corrosion cells were fitted with a stirring bar, auxiliary electrode, reference electrode, gas sparge tube, and glass periscope. • Each cell was charged with 999 g of the desired corrosion fluid. In this instance a 5% NaCl brine and Isopar M oil phase was used in a 9:1 ratio. • The cells were placed in a water bath set at 60° C. and set to stir at approximately 300 rpm. • Each cell was connected to a constant sparge of CO2 approx. 60 cm^3/min and then left for 1 hour to reach equilibrium. • C1018 mild steel coupons were washed with xylene and acetone to remove any vapour phase corrosion inhibitor and allowed to dry. • After the cells reached equilibrium the mild steel coupons were connected to the working electrodes and inserted into each cell using the glass periscopes to avoid getting the electrodes oil wet. • The LPR run was started and baseline corrosion data was collected for approximately 2.5 hours. • During this time 2% (w/w product) stock solutions of samples 1&2 were made up in deionised water.
The skilled reader will appreciate that the bubble test can only be used to evaluate if a product acts as a corrosion inhibitor and to rank corrosion inhibitors in order of effectiveness. […]

Molecule	Foam Volume after 10 minutes [1] [mL]	Time to 1000 ml (secs) [1]	Average corrosion rate [bubble test] (mils/y) ([2]; 4 ppm)	Average corrosion rate [weight loss] (mils/y) ([2]; 4 ppm)	Effciency at T = 15 (%) ([2]; 4 ppm)	Average corrosion rate [bubble test] (mils/y) ([2]; 20 ppm)	Average corrosion rate [weight loss] (mils/y) ([2]; 20 ppm)	Effciency at T = 15 (%) ([2]; 20 ppm)	Brine (ml) @ T = 30 mins [3] [mL]	Isopar M (ml) @ T = 30 mins [3]	Pad (ml) @ T = 30 mins [3] [mL]	Emulsion Layer (%) [3] [%]	Average corrosion rate [bubble test] (mils/y) ([4]; 4 ppm)	Average corrosion rate [weight loss] (mils/y) ([4]; 4 ppm)	Effciency at T = 15 (%) ([4]; 4 ppm)	Average corrosion rate [bubble test] (mils/y) ([4]; 20 ppm)	Average corrosion rate [weight loss] (mils/y) ([4]; 20 ppm)	Effciency at T = 15 (%) ([4]; 20 ppm)	Surface tension at 30 second (mN/m) [5]	other results
CCCCCCCCCCCCP(=O)(O)O [Lauryl Phosphonic Acid (100%), Lauryl Phosphonic Acid]	0	No foam	174.2	146.8	27.6	33.4	58.5	98.5	41	12** ml	0	0	174.2	146.8	27.6	33.4	58.5	98.5%	–	observation on the hydrocarbon layer ([3]; emulsification test, footnote): **Lauryl phosphonic acid appears to gel the hydrocarbon, effectively reducing the phase separation rate of the different layers
CCCCCCCCCCCCP(=O)(O)O [Lauryl Phosphonic Acid]	–	–	–	–	–	–	–	–	–	–	–	–	–	–	–	–	–	–	38.8* mN/m	–
CCCCCCCCP(=O)(O)O [Octyl Phosphonic Acid (80%), Octyl Phosphonic Acid]	0	No foam	267.4	244.3	0	49.1	48.1	96.3	–	–	–	–	267.4	244.3	0	49.1	48.1	greater than 95%	–	Average corrosion rate (RCE test) ([6]; CO2): 89 mils/y; Average corrosion rate (Weight Loss) ([6]; CO2): 56 mils/y; Effciency at T = 15 ([6]; CO2): 93%; Effciency at T = 15 ([6]; CO2, listed as octylphosphonic acid): > 90%; solubility in methanol [7]: fully soluble in methanol; Average corrosion rate (RCE test) [8]: 61 mils/y; Average corrosion rate (Weight Loss) [8]: 56 mils/y; Efficiency at T = 15 [8]: 96%; Effciency at T = 15 (%) ([4]; 20 ppm, listed as OPA (80%)): 96.3%
CCCCCCCCP(=O)(O)O [Octyl Phosphonic Acid (100%)—OPA, Octyl Phosphonic Acid]	–	–	–	–	–	–	–	–	50	50 mL	0	0	–	–	–	–	–	–	–	–
CCCCCCCCP(=O)(O)O [Octyl Phosphonic Acid]	–	–	–	–	–	–	–	–	–	–	–	–	–	–	–	–	–	–	58.5* mN/m	–
ethylhexyl acid phosphate	–	–	–	–	–	–	–	–	–	–	–	–	–	–	–	–	–	–	–	corrosion inhibition properties [9]: no corrosion inhibition properties
